Laboratory results taken from the supplement of paper PMC8882468.

Key:
Assay in all cases: CTG-3D luminescence at 96 h relative to day-0 seeding control (ratio to day 0); higher = more growth / less cytotoxicity; PDxO 3D drug screen, 96 h, CTG-3D normalised to day-0 seeding control.
[1] = tested on: HCI-002 (organoid from a triple-negative breast cancer xenograft)
[2] = tested on: HCI-010 (organoid from a breast cancer xenograft)
[3] = tested on: HCI-011.E2 (organoid from an ER-positive breast cancer xenograft)
[4] = tested on: HCI-017.E2 (organoid from an ER-positive breast cancer xenograft)
[5] = tested on: HCI-025 (organoid from a breast cancer xenograft)

CC1(C)CCC(c2ccc(Cl)cc2)=C(CN2CCN(c3ccc(C(=O)NS(=O)(=O)c4ccc(N[C@H](CCN5CCOCC5)CSc5ccccc5)c(S(=O)(=O)C(F)(F)F)c4)cc3)CC2)C1 [navitoclax]
CTG-3D luminescence at 96 h
Conditions | 12.5 pM | 0.00025 µM | 0.005 µM | 0.1 µM | 1 µM | 10 µM | 100 µM | 625 fM
[1], days in culture: 62 | 3.12 | 2.9 | 3.78 | 2.92 | 2.42 | 1.07 | 0.00133 | 3.47
[1], days in culture: 82 | 3.88 | 4.28 | 2.86 | 2.91 | 2.86 | 1.36 | 0.00885 | 3.44
[1], days in culture: 91 | 3.48 | 2.91 | 2.21 | 2.3 | 1.97 | 1.73 | 0.00844 | 3.14
[1], days in culture: 191 | 3.36 | 3.04 | 3.27 | 3.13 | 2.63 | 1.29 | -0.105 | 3.4
[1], days in culture: 209 | 2.83 | 3.07 | 2.6 | 2.13 | 1.85 | 1.18 | -0.00717 | 2.97
[1], days in culture: 227 | 5.11 | 5.2 | 4.65 | 4.75 | 3.73 | 3.27 | 0.0214 | 5.74
[2], days in culture: 52 | 2.01 | 2.27 | 2.15 | 0.695 | 0.0507 | 0.0304 | 0.0084 | 2.13
[2], days in culture: 65 | 1.61 | 1.66 | 1.65 | 0.573 | 0.026 | 0.0135 | 0.00305 | 1.8
[2], days in culture: 103 | 3.2 | 3.28 | 3.13 | 1.08 | 0.0477 | 0.0368 | 0.0191 | 2.7
[3], days in culture: 74 | 2.04 | 2.51 | 2.16 | 2.38 | 2.09 | 2.86 | 0.137 | 1.84
[4], days in culture: 85 | 2.05 | 1.26 | 2.18 | 1.93 | 1.57 | 1.98 | 0.14 | 1.51
[5], days in culture: 172 | 3.28 | 1.84 | 2.93 | 0.781 | 0.555 | -0.249 | -0.109 | 2.63
[5], days in culture: 209 | 1.95 | 2.53 | 2.24 | 1.27 | 1.81 | 0.666 | 0.00258 | 2.29
[5], days in culture: 218 | 1.36 | 1.87 | 1.59 | 1.15 | 0.81 | 0.293 | 0.0152 | 1.91

CTG-3D luminescence at 96 h
Conditions | 12.5 pM | 0.00025 µM | 0.005 µM | 0.1 µM | 1 µM | 10 µM | 100 µM | 625 fM
[3] | 1.62 | 1.82 | 1.33 | 1.72 | 1.52 | 1.84 | 0.144 | 1.8
[4] | 1.6 | 2 | 1.8 | 1.81 | 1.78 | 1.7 | 0.043 | 1.812

C[C@@H]1COCCN1c1cc(C2([S@](C)(=N)=O)CC2)nc(-c2cc[nH]c3nccc2-3)n1 [ceralasertib]
CTG-3D luminescence at 96 h
Conditions | 12.5 pM | 0.00025 µM | 0.005 µM | 0.1 µM | 1 µM | 10 µM | 100 µM | 625 fM
[1], days in culture: 62 | 2.73 | 2.51 | 2.76 | 3.04 | 1.81 | 1.12 | 0.574 | 2.93
[1], days in culture: 82 | 2.71 | 2.85 | 2.13 | 2.4 | 1.5 | 0.818 | 0.274 | 2.8
[1], days in culture: 91 | 4.35 | 3.4 | 4.02 | 3.58 | 2.23 | 1.3 | 0.523 | 4.14
[1], days in culture: 191 | 2.46 | 2.89 | 2.17 | 2.66 | 1.91 | 0.976 | 0.332 | 2.6
[1], days in culture: 209 | 2.37 | 2.28 | 1.9 | 2 | 1.41 | 0.743 | 0.29 | 2.27
[1], days in culture: 227 | 6.44 | 5.73 | 5.38 | 5.47 | 3.08 | 1.48 | 0.366 | 6.05
[2], days in culture: 52 | 2.13 | 2.39 | 2.26 | 2.04 | 0.835 | 0.422 | 0.238 | 2.24
[2], days in culture: 65 | 1.69 | 1.62 | 1.85 | 1.57 | 0.693 | 0.3 | 0.152 | 1.65
[2], days in culture: 103 | 3.6 | 3.3 | 3.45 | 3 | 1.49 | 0.548 | 0.325 | 3.14
[3], days in culture: 74 | 2.18 | 2.33 | 1.97 | 1.85 | 1.53 | 0.982 | 0.237 | 1.86
[4], days in culture: 85 | 3.08 | 3.11 | 2.49 | 2.26 | 2.3 | 1.08 | 0.827 | 2.52
[5], days in culture: 172 | 2.29 | 1.93 | 3.61 | 2.46 | 1.59 | 0.359 | 0.297 | 1.92
[5], days in culture: 209 | 1.3 | 1.6 | 1.64 | 1 | 0.856 | 0.386 | 0.184 | 1.38
[5], days in culture: 218 | 1.86 | 1.85 | 2.07 | 1.64 | 0.97 | 0.482 | 0.269 | 1.88

CTG-3D luminescence at 96 h
Conditions | 12.5 pM | 0.00025 µM | 0.005 µM | 0.1 µM | 1 µM | 10 µM | 100 µM | 625 fM
[3] | 1.56 | 1.76 | 1.56 | 1.78 | 1.42 | 1.02 | 0.326 | 1.89
[4] | 1.72 | 2.28 | 2.17 | 2.23 | 2.02 | 1.09 | 0.8168 | 2.165

CC(=O)O[C@H]1C(=O)[C@@]2(C)[C@H]([C@H](OC(=O)c3ccccc3)[C@]3(O)C[C@H](OC(=O)[C@H](O)[C@@H](NC(=O)c4ccccc4)c4ccccc4)C(C)=C1C3(C)C)[C@]1(OC(C)=O)CO[C@@H]1C[C@@H]2O [paclitaxel]
CTG-3D luminescence at 96 h
Conditions | 12.5 pM | 0.00025 µM | 0.005 µM | 0.1 µM | 1 µM | 10 µM | 100 µM | 625 fM
[1], days in culture: 62 | 2.36 | 2.52 | 1.34 | 0.186 | 0.146 | 0.236 | 0.316 | 2.73
[1], days in culture: 82 | 3.27 | 3.2 | 0.859 | 0.217 | 0.193 | 0.224 | 0.174 | 2.8
[1], days in culture: 91 | 3.82 | 3.68 | 1.54 | 0.26 | 0.19 | 0.258 | 0.36 | 4.44
[1], days in culture: 191 | 2.76 | 2.96 | 1.17 | 0.23 | 0.192 | 0.252 | 0.474 | 2.61
[1], days in culture: 209 | 2.24 | 2.21 | 1.2 | 0.194 | 0.195 | 0.158 | 0.174 | 2.26
[1], days in culture: 227 | 5 | 5.22 | 3 | 0.418 | 0.279 | 0.365 | 0.464 | 5
[2], days in culture: 52 | 2.13 | 2.39 | 2.24 | 1.16 | 1.15 | 1.12 | 0.408 | 2.28
[2], days in culture: 65 | 1.61 | 1.57 | 1.36 | 1.05 | 0.898 | 0.958 | 0.43 | 1.64
[2], days in culture: 103 | 3.62 | 3.37 | 3.05 | 1.41 | 1.24 | 1.28 | 0.858 | 3.06
[3], days in culture: 74 | 2.01 | 2.21 | 1.82 | 1.95 | 1.91 | 2.73 | 1.85 | 2.25
[4], days in culture: 85 | 2.33 | 1.88 | 1.23 | 0.935 | 1.09 | 1.04 | 0.81 | 1.92
[5], days in culture: 172 | 1.17 | 0.343 | 0.553 | 0.314 | 0.362 | 0.295 | 0.584 | 0.698
[5], days in culture: 209 | 2.09 | 2.2 | 1.75 | 0.281 | 0.353 | 0.301 | 0.767 | 2
[5], days in culture: 218 | 1.85 | 2.18 | 1.43 | 0.199 | 0.168 | 0.213 | 0.507 | 1.92

CTG-3D luminescence at 96 h
Conditions | 12.5 pM | 0.00025 µM | 0.005 µM | 0.1 µM | 1 µM | 10 µM | 100 µM | 625 fM
[3] | 1.3 | 1.33 | 1.09 | 1.41 | 1.34 | 1.77 | 1.8 | 1.52
[4] | 1.06 | 1.2 | 1.2 | 1.2 | 1.17 | 1.23 | 1.3 | 1.35

Cc1nc(-c2cn3c(n2)-c2ccc(-c4cnn(C(C)(C)C(N)=O)c4)cc2OCC3)n(C(C)C)n1 [taselisib]
CTG-3D luminescence at 96 h
Conditions | 12.5 pM | 0.00025 µM | 0.005 µM | 0.1 µM | 1 µM | 10 µM | 100 µM | 625 fM
[1], days in culture: 62 | 2.78 | 2.75 | 2.69 | 2.06 | 1.75 | 1.12 | 0.0194 | 3.01
[1], days in culture: 82 | 2.76 | 2.9 | 2.23 | 2.39 | 1.79 | 1.08 | 0.0159 | 3.2
[1], days in culture: 91 | 3.66 | 3.28 | 2.4 | 2.4 | 1.64 | 1.32 | 0.0254 | 3.59
[1], days in culture: 191 | 2.84 | 2.45 | 2.55 | 2.13 | 2.1 | 0.981 | 0.137 | 2.84
[1], days in culture: 209 | 2.15 | 2.3 | 2.09 | 1.75 | 1.5 | 0.726 | 0.0139 | 2.45
[1], days in culture: 227 | 4.99 | 5.28 | 4.54 | 3.54 | 2.79 | 1.69 | 0.0558 | 5.91
[2], days in culture: 52 | 2.17 | 2.09 | 1.97 | 2.31 | 1.65 | 0.735 | 0.0132 | 2.15
[2], days in culture: 65 | 1.89 | 1.84 | 1.88 | 1.78 | 1.24 | 0.457 | 0.00794 | 1.82
[2], days in culture: 103 | 3.55 | 3.66 | 3.45 | 3.46 | 2.33 | 0.906 | 0.0169 | 2.92
[3], days in culture: 74 | 2.48 | 2.64 | 1.33 | 0.778 | 0.432 | 0.326 | 0.711 | 2.81
[4], days in culture: 85 | 3.03 | 2.91 | 1.97 | 0.848 | 0.668 | 0.194 | 0.166 | 2.38
[5], days in culture: 172 | 3.15 | 1.96 | 3.8 | 1.36 | 0.93 | 0.235 | 0.0865 | 1.92
[5], days in culture: 209 | 1.6 | 2.39 | 1.79 | 1.16 | 0.455 | 0.267 | 0.0164 | 1.64
[5], days in culture: 218 | 1.42 | 1.87 | 1.83 | 0.886 | 0.193 | 0.296 | 0.0322 | 1.54

CTG-3D luminescence at 96 h
Conditions | 12.5 pM | 0.00025 µM | 0.005 µM | 0.1 µM | 1 µM | 10 µM | 100 µM | 625 fM
[3] | 1.44 | 1.59 | 1.07 | 0.776 | 0.369 | 0.212 | 0.527 | 1.51
[4] | 1.88 | 1.78 | 1.32 | 0.638 | 0.448 | 0.204 | 0.178 | 2.06
